Legend:
Type in all cases: cell-based
[1] = tested on: P. aeruginosa (ATCC #27853); assay: Zone-of-inhibition, ranked, bismuth thiol coated SIS discs (Example 1); conditions: 24 hours
Experimental: (§1) Seven bismuth thiol compounds (50 mg each) were obtained from Microbion, Inc. (Bozeman, Mont.). These compounds included 2 preparations of bismuth-1,2-ethanedithiol (BisEDT) (Molar ratio 1:1.5), 2 preparations of bismuth-2,3-dimercaptopropanol (BisBAL) (1:1 and 1:1.5), bismuth dithioethylhritol (BisERY) (1:1.5), bismuth-3,4-dimercatotoluene (BisTOL) (1:1.5) and bismuth butanedithiol (BisBDT) (1:1.5). Purified small intestinal submucosa (SIS) (Cook Biotech Incorporated, West Lafayette, Ind.) was made into wetted 4-layer constructs which were laminated together by lyophilization and subsequently cut into 15 mm discs (˜1.76 cm^2) using a disc punch. Bismuth thiols were resuspended in dimethyl sulfoxide (DMSO) and diluted to appropriate concentrations for coating. Discs were coated with the bismuth thiol solutions at three final concentrations using 17.6 μl of the appropriate solution per disc for a final concentration of 1, 10, or 100 μg/cm^2. The discs were subsequently placed in a lyophilizer overnight to remove the DMSO solvent. Control discs were prepared using 17.6 μl of DMSO without a bismuth thiol preparation. 3 bacteria were used for this experiment: S. aureus (ATCC #25983), P. aeruginosa (ATCC #27853), and E. coli (ATCC #25922). Bacteria was grown in Tryptic Soy Broth for 16-24 hours before placing a lawn on Tryptic Soy Agar in 100 mm Petri dishes.
(§2) Sixty six samples were tested in total (7 bismuth thiol preparations 3 doses=21+1 control=22×3 bacteria=66). A lawn of one of the three bacteria investigated was swabbed onto the Tryptic Soy Agar. The bismuth thiol coated disc was placed approximately in the center of the plate and rehydrated with ˜50 μl of sterile saline. Plates were incubated inverted for 24 hours at which time pictures were taken with a digital camera. Zones-of-inhibition were categorized by the approximate distance of bacterial growth inhibition from the disc edge. The effectiveness was ranked as follows: (−) for no growth retardation, (+) for growth retardation at <1 mm from disc edge, (++) for growth retardation 1-3 mm from disc edge, and (+++) for growth retardation greater than 3 mm from disc edge. Results are shown below in Tables 2-4.

[2] = tested on: S. aureus (ATCC #25983); assay: as above; conditions: 24 hours
Experimental: as §1, §2

[3] = tested on: E. coli (ATCC #25922); assay: as above; conditions: 24 hours
Experimental: as §1, §2

[4] = tested on: S. aureus (ATCC #25983); assay: Zone-of-inhibition after various rehydration times of coated SIS discs (Example 3)
Experimental: BisEDT (Molar ratio 1:1.5) and BisBAL (1:1.5) (50 mg each) were obtained from Microbion, Inc. Small intestinal submucosa (SIS) was obtained and processed into 4-layer lyophilized sheets as described in Example 1. The sheets were subsequently cut into 15 mm discs (˜1.76 cm^2) using a disc punch. Bismuth thiols were resuspended in dimethyl sulfoxide (DMSO) and diluted to appropriate concentrations for coating. Discs were coated with the bismuth thiol solutions at a final concentration of 0.35 μg/μl using 50 μl of the solution per disc for a final concentration of 10 μg/cm^2. The discs were subsequently placed in a lyophilizer overnight to remove the DMSO solvent. S. aureus (ATCC #25983) was used as the bacteria for this experiment. Bacteria was grown in Tryptic Soy Broth for 16-24 hours before placing a lawn on Tryptic Soy Agar in 100 mm Petri dishes.
Thirty six samples were tested in total (2 BT*n=3→6*6 rehydration times→36). A lawn of S. aureus was swabbed onto the Tryptic Soy Agar. For the 0 rehydration time point, the bismuth thiol coated disc was placed approximately in the center of the plate and rehydrated with ˜50 μl of sterile saline. Other rehydration times were varied at 5, 10, 20, 30, or 60 minutes. For this, the samples were placed in sterile saline and a timer set for each time. At the appropriate time, samples were removed from the saline and placed approximately in the center of the plate. Plates were incubated inverted for 24 hours at which time pictures were taken with a digital camera. Zones-of-inhibition were compared visually between groups.

[5] = tested on: P. aeruginosa (ATCC #27853); assay: Zone-of-inhibition measured by image analysis, coated SIS discs (Example 2); conditions: 10 μg/cm^2 on SIS disc, 24 hours, n=3
Experimental: (§3) BisEDT (Molar ratio 1:1.5), BisBAL (1:1.5), and BisERY (1:1.5) (50 mg each) were obtained from Microbion, Inc. Small intestinal submucosa (SIS) was obtained and processed into 4-layer lyophilized sheets as described in Example 1. The sheets were subsequently cut into 15 mm discs (˜1.76 cm^2) using a disc punch. Bismuth thiols were resuspended in dimethyl sulfoxide (DMSO) and diluted to 0.35 μg/μl for coating. Discs were coated with the bismuth thiol solutions 50 μl of the appropriate solution per disc for a final concentration 10 μg/cm^2 (0.35 μg/μl*50 μl=17.5 μg/1.76 cm^2=10 μg/cm^2). The discs were subsequently placed in a lyophilizer overnight to remove the DMSO solvent. Control discs were prepared using 50 μl of DMSO without a bismuth thiol preparation. 3 bacteria were used for this experiment: S. aureus (ATCC #25983), P. aeruginosa (ATCC #27853), and E. coli (ATCC #25922). Bacteria was grown in Tryptic Soy Broth for 16-24 hours before placing a lawn on Tryptic Soy Agar in 100 mm Petri dishes.
(§4) Thirty samples were tested in total (3 bismuth thiol preparations @ n=3→9+1 control=10×3 bacteria=30). A lawn of one of the three bacteria investigated was swabbed onto the Tryptic Soy Agar. The bismuth thiol coated disc was rehydrated for ˜5 minutes in sterile saline and placed approximately in the center of the plate. Plates were incubated inverted for 24 hours at which time pictures were taken with a digital camera. Zones-of-inhibition were measured using image analysis software (Spot RT) by determining the distance of bacterial growth inhibition from the disc edge.

[6] = tested on: S. aureus (ATCC #25983); assay: as above; conditions: 10 μg/cm^2 on SIS disc, 24 hours, n=3
Experimental: as §3, §4

[7] = tested on: E. coli (ATCC #25922); assay: as above; conditions: 10 μg/cm^2 on SIS disc, 24 hours, n=3
Experimental: as §3, §4

Compound	Zone-of-inhibition rank (P. aeruginosa) ([1]; 1 μg/cm^2 on SIS disc)	Zone-of-inhibition rank (P. aeruginosa) ([1]; 10 μg/cm^2 on SIS disc)	Zone-of-inhibition rank (P. aeruginosa) ([1]; 100 μg/cm^2 on SIS disc)	Zone-of-inhibition rank (S. aureus) ([2]; 1 μg/cm^2 on SIS disc)	Zone-of-inhibition rank (S. aureus) ([2]; 10 μg/cm^2 on SIS disc)	Zone-of-inhibition rank (S. aureus) ([2]; 100 μg/cm^2 on SIS disc)	Zone-of-inhibition rank (E. coli) ([3]; 1 μg/cm^2 on SIS disc)	Zone-of-inhibition rank (E. coli) ([3]; 10 μg/cm^2 on SIS disc)	Zone-of-inhibition rank (E. coli) ([3]; 100 μg/cm^2 on SIS disc)	Effect of rehydration time on zone-of-inhibition, visual comparison ([4]; 10 μg/cm^2, rehydration 0-60 minutes in sterile saline)	Zone-of-inhibition, visual ([4]; 10 μg/cm^2 on SIS disc, rehydration 0, 5, 10, 20, 30 or 60 minutes)	Zone-of-inhibition, distance of bacterial growth inhibition from the disc edge [5]	Zone-of-inhibition, distance of bacterial growth inhibition from the disc edge [6]	Zone-of-inhibition, distance of bacterial growth inhibition from the disc edge [7]
OCC(S)CS.[Bi] (stereo not shown) [Bis BAL1, bismuth-2,3-dimercaptopropanol]	−	+ ((+) for growth retardation at <1 mm from disc edge)	+++ ((+++) for growth retardation greater than 3 mm from disc edge)	+ ((+) for growth retardation at <1 mm from disc edge)	+++ ((+++) for growth retardation greater than 3 mm from disc edge)	+++ ((+++) for growth retardation greater than 3 mm from disc edge)	−	++ ((++) for growth retardation 1-3 mm from disc edge)	+++ ((+++) for growth retardation greater than 3 mm from disc edge)					
OCC(S)CS.[Bi] (stereo not shown) [Bis BAL2, bismuth-2,3-dimercaptopropanol]	−	+ ((+) for growth retardation at <1 mm from disc edge)	+++ ((+++) for growth retardation greater than 3 mm from disc edge)	+ ((+) for growth retardation at <1 mm from disc edge)	+++ ((+++) for growth retardation greater than 3 mm from disc edge)		−	++ ((++) for growth retardation 1-3 mm from disc edge)	+++ ((+++) for growth retardation greater than 3 mm from disc edge)					
OCC(S)CS.[Bi] (stereo not shown) [BisBAL, bismuth-2,3-dimercaptopropanol]										no visual differences between the rehydration time points	significant effectiveness in creating a zone-of-inhibition	0.16	7.27	1.50
bismuth butanedithiol [Bis BDT]	−	+ ((+) for growth retardation at <1 mm from disc edge)	++ ((++) for growth retardation 1-3 mm from disc edge)	−	++ ((++) for growth retardation 1-3 mm from disc edge)	+++ ((+++) for growth retardation greater than 3 mm from disc edge)	−	++ ((++) for growth retardation 1-3 mm from disc edge)	++ ((++) for growth retardation 1-3 mm from disc edge)					
bismuth dithioethylhritol [Bis ERY]	−	++ ((++) for growth retardation 1-3 mm from disc edge)	+++ ((+++) for growth retardation greater than 3 mm from disc edge)	−	++ ((++) for growth retardation 1-3 mm from disc edge)	+++ ((+++) for growth retardation greater than 3 mm from disc edge)	−	++ ((++) for growth retardation 1-3 mm from disc edge)	+++ ((+++) for growth retardation greater than 3 mm from disc edge)					
bismuth-1,2-ethanedithiol [Bis EDT1]	−	+ ((+) for growth retardation at <1 mm from disc edge)	+ ((+) for growth retardation at <1 mm from disc edge)	+ ((+) for growth retardation at <1 mm from disc edge)	++ ((++) for growth retardation 1-3 mm from disc edge)	+++ ((+++) for growth retardation greater than 3 mm from disc edge)	−	−	+ ((+) for growth retardation at <1 mm from disc edge)					
bismuth-1,2-ethanedithiol [Bis EDT2]	−	−	++ ((++) for growth retardation 1-3 mm from disc edge)	++ ((++) for growth retardation 1-3 mm from disc edge)	++ ((++) for growth retardation 1-3 mm from disc edge)	+++ ((+++) for growth retardation greater than 3 mm from disc edge)	−	+ ((+) for growth retardation at <1 mm from disc edge)	+ ((+) for growth retardation at <1 mm from disc edge)					
bismuth-3,4-dimercatotoluene [Bis TOL]	−	−	−	−	+ ((+) for growth retardation at <1 mm from disc edge)	+ ((+) for growth retardation at <1 mm from disc edge)	−	−	−					

Source: patent US8343536B2, “Biofilm-inhibiting medical products” (Cook Biotech Incorporated, priority 2007, dated 2013)
